Literature values, collected in patent US7198796B2, “Antifungal parenteral products” (Vicuron Pharmaceuticals Inc., priority 2002, dated 2007).
*1 amine or outer side, *2 acyl side, *3 side chain or, on linkers, in order; H or OH if unused. Where a SMILES comes first, the peptide text is derived from it. Bridges are numbered along the chain shown (N, C = ends). [ ]: non-standard residue; d: D form. The star is where a group is joined. ξ: configuration not given here. pTerphenylCO(4''-OnC5H11) = CCCCCOc1ccc(-c2ccc(-c3ccc(C(=O)*)cc3)cc2)cc1; ξOrn(4R-OH,5R-OH) = O=C(C(C[C@@H](O)[C@@H](O)N[*:3])N[*:1])[*:2]; hTyr(3S-OH,4S-OH) = N[C@H](C(=O)O)[C@H](O)[C@@H](O)c1ccc(O)cc1; Pro(3S-OH,4S-Me) = C[C@H]1CN[C@H](C(=O)O)[C@H]1O; Hyp = O=C(O)[C@@H]1C[C@@H](O)CN1

Q: With CCCCCOc1ccc(-c2ccc(-c3ccc(C(=O)NC4C[C@@H](O)[C@@H](O)NC(=O)[C@@H]5[C@@H](O)[C@@H](C)CN5C(=O)[C@H]([C@@H](C)O)NC(=O)[C@H]([C@H](O)[C@@H](O)c5ccc(O)cc5)NC(=O)[C@@H]5C[C@@H](O)CN5C(=O)[C@H]([C@@H](C)O)NC4=O)cc3)cc2)cc1 (stereo partly drawn) [anidulafungin, 1-[(4R,5R)-4,5-Dihydroxy-N(2)-[[4″-(pentyloxy)[1,1′:4′,1″-terphenyl]-4-yl]carbonyl]-L-ornithine]echinocandin B] ({pTerphenylCO(4''-OnC5H11)}-[ξOrn(4R-OH,5R-OH)]T[Hyp][hTyr(3S-OH,4S-OH)]T[Pro(3S-OH,4S-Me)]; lactam 1-C) as the compound, how does the water solubility read?
A: less than 0.1 mg/ml
